Results reported in patent publication US20130324545A1, “METHODS FOR THE REGULATION OF THE PROSTAGLANDIN F SYNTHASE (PGFS) ACTIVITY OF AKR1B1 AND USES THEREOF” (UNIVERSITE LAVAL, priority 2007, published 2013).
Like-named read-outs stand apart in the source and are kept apart here.

Key:
[1] = test system: human endometrial epithelial (HIEEC) cells; assay: PGF2α and PGE2 production and enzyme expression in endometrial epithelial HIEEC cells stimulated with IL-1β (ELISA, Western blot); format: cell-based; settings: for PGF2α production / expression of PGF2α biosynthetic enzymes (AKR1B1, COX-1, COX-2): increasing doses of cytokine, HIEEC; for IC50: Homo sapiens
Protocol: (§1) Western blot analysis was performed with approximately 20 μg total proteins from cultured cells on a 10% SDS-PAGE gel, followed by electro-transfer onto nitrocellulose membrane. The primary antibodies used for the present study were rabbit AKR1B1 (dilution 1:1000) and COX-2 (dilution 1:10 000) anti-sera and goat AKR1C3 (dilution 1:500) anti-serum. A β-actin monoclonal antibody (1:5000, Sigma, Mississauga, Ontario, Canada) was used as an internal control. Goat anti-rabbit IgG conjugated with horseradish peroxidase (HRP) (Jackson Immunoresearch Laboratories, West Grove, Pa., USA), rabbit anti-goat IgG HRP and goat anti-mouse IgG HRP were used as secondary antibodies. Chemiluminescence was analyzed with autoradiography films at optimal times of exposure following treatment of the membranes with Renaissance™ reagent (NEN Life Science Products, Boston, Mass., USA).
(§2) For cell culture transfection, immortalized human endometrial stromal cells (HIESC-2) and epithelial cells(HIEEC-22) were cultured in RPMI 1640 without phenol red, containing 50 IU penicillin-streptomycin supplemented with 10% whole fetal bovine serum (FBS). Ten percent dextran-coated charcoal-extracted FBS was used once cells have reached confluency. Knock-down and knock-in transfections of cells with AKR1B1 specific siRNA, AKR1B1 or AKRIC3 cDNAs in pCR3.1 expression vectors were performed with Lipofectamine™ 2000 for 4 hours in culture medium without antibiotic. Thirty-six hours after transfection (24 hours for siRNA transfection), cells were treated for 24 hours with recombinant human interleukin 1β (IL-1β) (1 ng/ml) (R&D Systems, Minneapolis, Minn., USA) or arachidonic acid (AA) 10 μM in RPMI 1640 medium without serum. At the end of the treatment period, the culture medium was recovered and stored at −20° C. until evaluation for PGF2α production.
(§3) Enzymatic immunoassay (EIA) was performed with an acetylcholinesterase-linked PGF2α tracer (Cayman) as described previously (Asselin et al., Biol Reprod 54(2); 371-9, 1996). Sheep anti-PGF2α (Bio-Quant, Ann Arbor, Mich., USA) was used as the selective antibody. Inter-assay and intra-assay coefficients of variations (n=12) were of 16% and 10% respectively. Statistical analysis was performed using ANOVA with Statview™ software (Abacus Concept, Calif.). Values were considered statistically significant for p<0.05.

[2] = test system: human endometrial stromal (HIESC) cells; assay: PGF2α and PGE2 production and enzyme expression in endometrial stromal HIESC cells stimulated with IL-1β (ELISA, Western blot); format: cell-based; settings: for PGE2 production in presence of PG receptor antagonist: IL-1β-stimulated stromal HIESC; for IC50: Homo sapiens, stromal HIESC cells stimulated by IL-1β, ELISA, range in brackets
[3] = test system: human endometrial stromal (HIESC) cells; assay: as above; format: cell-based; settings: increasing doses of cytokine
Protocol: as §1, §2, §3

[4] = test system: human primary cardiomyocytes; assay: Effect of IL-1β and TNF-α on PGF2α, COX-2 and AKR1B1 in human primary cardiomyocytes (ELISA, Western blot); format: cell-based; settings: for PGF2α production: FIG. 19, ELISA; for AKR1B1 and COX-2 protein expression: FIG. 19, Western blot
Source text: FIG. 19 comprises FIG. 19A, 19B, 19C and 19D, and illustrates the effect of IL-1β and TNF-α on the production of PGF2α (A), COX-2 (B) and AKR1B1 (C) by human primary cardiomyocytes, as measured by ELISA and Western blot. FIG. 19D illustrates β-actin levels of the three cells groups.

[5] = test system: primary human umbilical vein endothelial cells (HUVEC); assay: Effect of IL-1β and TNF-α on PGF2α, COX-2 and AKR1B1 in primary HUVEC; format: cell-based; settings: for PGF2α production: ELISA; for COX-2 protein expression: endogenous AKR1B1 levels already high
Source text: FIG. 22 comprises FIGS. 22A and 22B, with FIG. 22A illustrating the effect of IL-1β and TNF-α on the production of PGF2α by primary human umbilical vein endothelial cells (HUVEC), as measured by ELISA; and FIG. 22B illustrating the effect of IL-1β and TNF-α on the protein expression of COX-2 and AKR1B1 in primary HUVEC.

AKR1B1 = molecular target: T1, AKR1B1 (Homo sapiens, UniProt P15121); assay: Effect of ASA / COX inhibitors on AKR1B1 expression and PGF synthase activity in cells expressing AKR1B1; format: cell-based
T1 construct: endogenous in cells; host or cells: 'our cellular model'
Protocol: as §1

macrophages = macrophages treated with endotoxines or lipopolysaccharides; cited from earlier work
[6] = diabetic subjects having neuropathies; cited from earlier work
[7] = test system: primary human umbilical vein smooth muscle cells (HUVSMC); assay: Effect of IL-1β on PGF2α, COX-2 and AKR1B1 in primary HUVSMC; format: cell-based
Source text: FIG. 21 comprises FIGS. 21A and 21B, with FIG. 21A illustrating the effect of IL-1β on the production of PGF2α by primary human umbilical vein smooth muscle cells (HUVSMC), as measured by ELISA; and FIG. 21B illustrating the effect of IL-1β on the protein expression of COX-2 and AKR1B1 in primary HUVSMC.

[8] = test system: primary human umbilical artery smooth muscle cells (HUASMC); assay: Effect of IL-1β on PGF2α, COX-2 and AKR1B1 in primary HUASMC; format: cell-based
Source text: FIG. 20 comprises FIGS. 20A and 20B, with FIG. 20A illustrating the effect of IL-1β on the production of PGF2α by primary human umbilical artery smooth muscle cells (HUASMC), as measured by ELISA; and FIG. 20B illustrating the effect of IL-1β on the protein expression of COX-2 and AKR1B1 in primary HUASMC.

[9] = HIEEC cells stimulated by IL-1β, ELISA, range in brackets, read-out: IC50 PGE2 production
[10] = HIEEC cells treated with IL-1β, ELISA, range in brackets, read-out: IC50 PGF2α production
[11] = read-out: IC50 PGF2α production

In the case of `O=C(O)CCC/C=C\C[C@@H]1[C@@H](/C=C/[C@H](O)C2Cc3ccccc3C2)[C@@H](F)C[C@@H]1O` [AL8810], the “PGE2 production in presence of PG receptor antagonist” value (from here on “PGE2 production in presence”) ([1]; IL-1β-stimulated epithelial HIEEC) is reported as “induced a reduction in PGE2 production”, the “PGE2 production in presence” value [2] is reported as “induced a reduction in PGE2 production” and the “PGE2 production in presence” value ([2]; listed as AL 8810) is reported as “reduced PGE2 production”.

In the case of TNF-α, the PGF2α production [3] is reported as “increase in PGF2α production”, the “expression of PGF2α biosynthetic enzymes (AKR1B1, COX-1, COX-2)” value (“expression of PGF2α biosynthetic enzymes” below) [3] is reported as “significant increase in expression of AKR1B1, COX-1 and COX-2” and the PGF2α production [4] is reported as “stimulated”. For the same compound, the “AKR1B1 and COX-2 protein expression” value [4] was “stimulated”, the PGF2α production [1] was “increase in PGF2α production” and the “expression of PGF2α biosynthetic enzymes” value [1] was “significant increase in expression of AKR1B1, COX-1 and COX-2”. The PGF2α production [5] was “stimulated” and the COX-2 protein expression [5] was “stimulated”.

With `CS(=O)(=O)c1ccc(C2=C(c3ccccc3)C(=O)OC2)cc1` [rofecoxib] the AKR1B1 gene expression (AKR1B1) was “do not influence”, the “inhibits production of PGE2 more efficiently than production of PGF2α” value ([1]; HIEEC cells stimulated with IL-1β) was “ten times more efficiently” and the IC50 [1, 9] was 51.7 nM. For the same compound, the IC50 [1, 10] was 201 nM and the PGF2α/PGE2 ratio ([1]; at 10 μM) was “strong alteration of the PGF2α/PGE2 ratio in favor of PGF2α”.

For `COc1ccc2c(C(=S)N(C)CC(=O)O)cccc2c1C(F)(F)F` [Tolrestat™], the “production levels of PGE2” value (macrophages) is given as “capable to reduce” and the side-effects [6] is given as “undesirable hepatic side-effects”.

In the case of `O=C(O)Cc1nn(Cc2nc3cc(C(F)(F)F)ccc3s2)c(=O)c2ccccc12` [Zopolrestat™], the “production levels of PGE2” value (macrophages) is given as “capable to reduce” and the side-effects [6] is given as “undesirable hepatic side-effects”.

For `CS(=O)(=O)Nc1ccc([N+](=O)[O-])cc1OC1CCCCC1` [NS-398], the “inhibition of PGF2α production” value ([1]; COX-1-expressing HIEEC, IL-1β) was “did not completely inhibited”.

In the case of `O=C1NC(=O)[C@@]2(CCOc3ccc(F)cc32)N1` [Sorbinil™], the “production levels of PGE2” value (macrophages) is listed as “capable to reduce”.

For IL-1β: recombinant human interleukin 1β, the PGF2α production [3] was “increase in PGF2α production”, the “expression of PGF2α biosynthetic enzymes” value [3] was “only of COX-2” and the PGF2α production [4] was “stimulated”. For the same compound, the “AKR1B1 and COX-2 protein expression” value [4] was “stimulated”, the “AKR1C3 protein expression level” value ([1]; HIEEC-22, 1 ng/ml, Western blot) was “no effect” and the PGF2α production [1] was “increase in PGF2α production”. The “expression of PGF2α biosynthetic enzymes” value [1] was “significant increase in expression of AKR1B1, COX-1 and COX-2”, the “AKR1B1 and COX-2 protein expression” value [7] was “stimulated” and the PGF2α production ([7]; ELISA) was “stimulated”. The “AKR1B1 and COX-2 protein expression” value [8] was “stimulated”, the PGF2α production ([8]; ELISA) was “stimulated” and the PGF2α production [5] was “stimulated”. The COX-2 protein expression [5] was “stimulated”.

In the case of `COc1ccc2cc([C@H](C)C(=O)O)ccc2c1` [naproxen], the “potency for inhibition of PGF2α production compared with Aspirin” value ([1]; HIEEC cells stimulated by IL-1β) is reported as “more potent than Aspirin™”, the IC50 [1, 9] is reported as 142 nM and the IC50 [1, 10] is reported as 4.62 nM. For the same compound, the PGF2α/PGE2 ratio ([1]; at 10 nM) was “strong alteration of the PGF2α/PGE2 ratio in favor of PGE2”, the “inhibits PGF2α more efficiently than PGE2” value ([1]; endometrial epithelial cells (express COX-1 and COX-2)) was 100 times and the IC50 ([2]; read-out: IC50 PGE2 production) was 62.6 nM. For the same compound, the IC50 [2, 11] was 43.8 nM and the “inhibition of PGF2α versus PGE2 production, comparison of IC50” value ([2]; endometrial stromal cells (only express COX-2)) was “comparable IC50”.

In the case of `CC(=O)Oc1ccccc1C(=O)O` [Aspirin, acetylsalicylic acid], the AKR1B1 gene expression (AKR1B1) is reported as “blocks”, the “inhibition of AKR1B1 protein” value (AKR1B1; 1-5 mM, cellular model) is reported as “dose-dependent inhibition” and the PGF synthase activity (AKR1B1; cells expressing AKR1B1) is reported as “strongly reduced”. The “protein expression level of AKR1B1” value (AKR1B1; cells expressing AKR1B1) was “strongly reduced” and the IC50 [1, 11] was 1940 nM.

In the case of `O=C(O)Cc1nn(Cc2ccc(Br)cc2F)c(=O)c2ccccc12` [Statil™], the side-effects [6] is given as “undesirable hepatic side-effects”.
